For assay [1], the target named is C-Raf kinase (SEQ. ID NO: 3) (Homo sapiens (Human), UniProt P04049, Y340D/Y341D). The experiment in a line: Biochemical Assay for C-Raf (1). To be noted: Table J, biochemical assay (1); read-out: CRAF (1). In a few lines:
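Coupled pyruvate kinase/LDH assay tracking NADH oxidation at 340 nm, with 0.43 nM C-Raf, 30.1 nM MEK and 1 mM ATP in pH 7.5 Tris buffer (15 mM MgCl2, 1% DMSO final). Read continuously for 6 h at 30 °C, rate taken from the 4–5 h window. IC50 from four-parameter fit of percent inhibition.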

The target in assay [2] is B-Raf (V600E) (SEQ. ID NO: 4) kinase (Homo sapiens (Human), UniProt P15056, V600E). The experiment in a line: Biochemical Assay for B-Raf (V600E) (1). To be noted: Table J, BRAF V600E, biochemical assay (1); read-out: BRAF VE (1). The gist of the method:
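Coupled pyruvate kinase/lactate dehydrogenase assay: 0.03 nM B-Raf V600E, 30.1 nM MEK, 1 mM ATP, pH 7.5 Tris/MgCl2 buffer, 1% DMSO. NADH oxidation followed at 340 nm for 6 h at 30 °C; rate from 3–4 h converted to percent inhibition, IC50 by four-parameter fit.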

Structures are written as SMILES.

Sequence of B-Raf (V600E) (SEQ. ID NO: 4) kinase (P15056 416-766 V600E): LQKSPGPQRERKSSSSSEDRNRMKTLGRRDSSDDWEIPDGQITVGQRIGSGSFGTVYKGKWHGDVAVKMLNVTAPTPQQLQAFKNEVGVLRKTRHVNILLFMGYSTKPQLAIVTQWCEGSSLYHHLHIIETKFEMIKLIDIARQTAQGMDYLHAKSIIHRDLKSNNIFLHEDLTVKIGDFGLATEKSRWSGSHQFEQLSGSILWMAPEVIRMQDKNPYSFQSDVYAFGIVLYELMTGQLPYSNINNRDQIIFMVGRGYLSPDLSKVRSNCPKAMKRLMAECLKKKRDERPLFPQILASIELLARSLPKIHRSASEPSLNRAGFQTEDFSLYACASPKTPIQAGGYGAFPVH
Sequence of C-Raf kinase (SEQ. ID NO: 3) (P04049 307-648 Y340D/Y341D): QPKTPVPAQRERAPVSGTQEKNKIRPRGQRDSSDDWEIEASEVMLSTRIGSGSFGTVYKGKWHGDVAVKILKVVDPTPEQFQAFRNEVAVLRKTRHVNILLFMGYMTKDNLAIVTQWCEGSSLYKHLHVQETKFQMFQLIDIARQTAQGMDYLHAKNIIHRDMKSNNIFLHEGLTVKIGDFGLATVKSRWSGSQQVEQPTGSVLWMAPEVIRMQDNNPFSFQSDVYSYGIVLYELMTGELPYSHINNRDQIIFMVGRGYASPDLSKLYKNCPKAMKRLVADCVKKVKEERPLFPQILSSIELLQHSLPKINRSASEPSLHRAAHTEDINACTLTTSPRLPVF

Consider `COC(=O)Nc1cc(-c2cncc(-c3cc(NC(=O)c4ccnc(C(C)(C)F)c4)ccc3C)c2)ncn1` [Example 425], for which the IC50 in assay [1] and in assay [2] was at most 0.1 µM in each case.
Regarding `COC(=O)Nc1cc(-c2cccc(-c3cc(NC(=O)Cn4cc(C(C)C)nn4)cnc3C)c2)ccn1` [Example 415], the IC50 in assay [1] fell in the range of 0.1 to 0.5 µM; in assay [2], 1 to 10 µM.
Taken in the same sequence, the figures for `Cc1ncc(NC(=O)c2ccnc(C(C)(C)C#N)c2)cc1-c1cncc(-c2cc(NC(=O)C3CC3)ncn2)c1` [Example 410] were at most 0.1 µM and at most 0.1 µM.
The matching figures for `Cc1cc(F)c(NC(=O)c2ccnc(C(C)(C)F)c2)cc1-c1cncc(-c2cc(NC(=O)C3CC3)ncn2)c1` [Example 423]: at most 0.1 µM and at most 0.1 µM.
As to `Cc1cc(F)c(NC(=O)c2ccnc(C(C)(C)C#N)c2)cc1-c1cncc(-c2cc(NC(=O)C3CC3)ncn2)c1` [Example 424], the IC50 in assay [1] and in assay [2] was at most 0.1 µM in each case.
`CNC(=O)c1cc(-c2cncc(-c3cc(NC(=O)c4ccnc(C(C)(C)F)c4)c(F)cc3C)c2)ccn1` [Example 408]: the IC50 in assay [1] and in assay [2] was at most 0.1 µM in each case.
Take `Cc1ncc(NC(=O)c2ccnc(C(C)(C)F)c2)cc1-c1cncc(-c2cc(NC(=O)C3CC3)ncn2)c1` [Example 406]: the IC50 in assay [1] and in assay [2] was at most 0.1 µM each time.
Consider `Cc1ccc(NC(=O)c2ccnc(C(C)(C)F)c2)cc1-c1cncc(-c2cc(N)ncn2)c1` [Example 411], for which the IC50 in assay [1] and in assay [2] was at most 0.1 µM each time.
Take `Cc1ncc(NC(=O)c2ccnc(C(C)(C)F)c2)cc1-c1cncc(-c2ccnc(NC(=O)C3CC3)c2)c1` [Example 433]: the IC50 in assay [1] and in assay [2] was at most 0.1 µM throughout.
Turning to `Cc1ccc(NC(=O)c2ccnc(C(F)F)c2)cc1-c1cncc(-c2cc(NC(=O)C3CC3)ncn2)c1` [Example 429], the IC50 in assay [1] and in assay [2] was at most 0.1 µM throughout.
As for `Cc1ccc(NC(=O)c2cc(C3CC3)on2)cc1-c1cncc(-c2cc(NC(=O)C3CC3)ncn2)c1` [Example 421], the IC50 in assay [1] and in assay [2] was at most 0.1 µM throughout.
Regarding `Cc1ccc(NC(=O)c2ccnc(C(C)(F)F)c2)cc1-c1cncc(-c2cc(NC(=O)C3CC3)ncn2)c1` [Example 419], the IC50 in assay [1] and in assay [2] was at most 0.1 µM throughout.
As for `COC(=O)Nc1cc(-c2cncc(-c3cc(NC(=O)c4ccnc(C5(C#N)CC5)c4)ccc3C)c2)ncn1` [Example 405], the IC50 in assay [1] and in assay [2] was at most 0.1 µM each time.
Turning to `COc1ccc(NC(=O)c2ccnc(C(C)(C)C#N)c2)cc1-c1cccc(-c2cc(NC(=O)C3CC3)ncn2)c1` [Example 438], the IC50 in assay [1] and in assay [2] was at most 0.1 µM each time.
For `COC(=O)Nc1cc(-c2cc(-c3cc(NC(=O)c4ccnc(C(C)(C)F)c4)ccc3C)nc(C)n2)ccn1` [Example 416], the IC50 in assay [1] and in assay [2] was at most 0.1 µM each time.
In the case of `CNC(=O)c1cc(-c2nccc(-c3cc(NC(=O)c4ccnc(C(C)(C)F)c4)c(F)cc3C)n2)ccn1` [Example 427], the IC50 in assay [1] and in assay [2] was at most 0.1 µM each time.
As for `Cc1ccc(NC(=O)c2ccnc(C(C)(C)C#N)c2)cc1-c1cncc(-c2cc(N)ncn2)c1` [Example 422], the IC50 in assay [1] and in assay [2] was at most 0.1 µM throughout.
In the case of `Cc1cc(F)c(NC(=O)c2ccnc(C(C)(C)C#N)c2)cc1-c1cncc(-c2ccnc(NC(=O)C3CC3)c2)c1` [Example 418], the IC50 in assay [1] and in assay [2] was at most 0.1 µM throughout.
Consider `CNC(=O)c1cc(-c2cc(-c3cc(NC(=O)c4ccnc(C(C)(C)F)c4)ccc3C)nc(C)n2)ccn1` [Example 428], for which the IC50 in assay [1] was 0.1 to 0.5 µM; in assay [2] it was at most 0.1 µM.
Consider `COC(=O)Nc1cc(-c2cncc(-c3cc(NC(=O)c4ccnc(C(C)(C)F)c4)ccc3C)c2)ccn1` [Example 435], for which the IC50 in assay [1] and in assay [2] was at most 0.1 µM in each case.
`COC(=O)Nc1cc(-c2cccc(-c3cc(NC(=O)c4ccnc(C(C)(C)F)c4)cnc3C)c2)ncn1` [Example 404]: the IC50 in assay [1] and in assay [2] was at most 0.1 µM throughout.
For `Cc1ccc(NC(=O)c2cnn(C3CC3)c2)cc1-c1cncc(-c2cc(NC(=O)C3CC3)ncn2)c1` [Example 430], the IC50 in assay [1] and in assay [2] was at most 0.1 µM in each case.
Regarding `CNC(=O)c1cc(-c2cc(-c3cc(NC(=O)c4ccnc(C(C)(C)C#N)c4)ccc3OC)ccn2)ccn1` [Example 437], the IC50 in assay [1] and in assay [2] was at most 0.1 µM each time.
In the case of `Cc1ccc(NC(=O)c2ccnc(C(C)(C)F)c2)cc1-c1cncc(-c2ccnc(NC(=O)C3CC3)c2)c1` [Example 417], the IC50 in assay [1] and in assay [2] was at most 0.1 µM each time.
As for `COC(=O)Nc1cc(-c2cncc(-c3cc(NC(=O)c4ccnc(C(C)(C)C#N)c4)ccc3C)c2)ncn1` [Example 414], the IC50 in assay [1] and in assay [2] was at most 0.1 µM throughout.
With `Cc1ccc(NC(=O)c2ccnc(C(C)C)c2)cc1-c1cncc(-c2cc(NC(=O)C3CC3)ncn2)c1` [Example 434], the IC50 in assay [1] and in assay [2] was at most 0.1 µM throughout.
Turning to `Cc1ccc(NC(=O)c2cn(C(C)C)nn2)cc1-c1cncc(-c2cc(NC(=O)C3CC3)ncn2)c1` [Example 412], the IC50 in assay [1] and in assay [2] was at most 0.1 µM each time.
Take `Cc1ccc(NC(=O)c2cc(C(C)(C)C)on2)cc1-c1cncc(-c2cc(NC(=O)C3CC3)ncn2)c1` [Example 431]: the IC50 in assay [1] and in assay [2] was at most 0.1 µM throughout.
Turning to `Cc1ncc(NC(=O)c2ccnc(C(C)(C)C#N)c2)cc1-c1cccc(-c2cnc3ccccn23)c1` [Example 407], the IC50 in assay [1] and in assay [2] was 0.1 to 0.5 µM throughout.
Regarding `Cc1ccc(NC(=O)c2cc(C3CC3)n(C)n2)cc1-c1nccc(-c2ccnc(NC(=O)C3CC3)c2)n1` [Example 436], the IC50 in assay [1] and in assay [2] was at most 0.1 µM each time.
Turning to `COC(=O)Nc1cc(-c2cnnc(-c3cc(NC(=O)c4cn(C(C)C)nn4)ccc3C)c2)ccn1` [Example 409], the values for the IC50 in assay [1] and in assay [2] were 0.1 to 0.5 µM and 0.5 to 1 µM, respectively.
The matching figures for `CNC(=O)c1cc(-c2cncc(-c3cc(NC(=O)c4ccnc(C(C)(C)F)c4)ccc3C)c2)ccn1` [Example 413]: at most 0.1 µM and at most 0.1 µM.
Consider `Cc1ccc(NC(=O)c2ccnc(C(C)(C)C#N)c2)cc1-c1cncc(-c2cc(NC(=O)C(C)C)ncn2)c1` [Example 420], for which the IC50 in assay [1] and in assay [2] was at most 0.1 µM throughout.
Take `Cc1ccc(NC(=O)c2ccnc(C(C)(C)F)c2)cc1-c1cncc(-c2ccnc3c2CC(=O)N3)c1` [Example 432]: the IC50 in assay [1] and in assay [2] was at most 0.1 µM in each case.
